According to ChEMBL document CHEMBL5226390, “Synthesis and Structure-Activity Analysis of Icaritin Derivatives as Potential Tumor Growth Inhibitors of Hepatocellular Carcinoma Cells” (J Nat Prod, 2023):

Assays:
Type in all cases: functional, cell-based
HepG2 = experiment: Antiproliferative activity against human HepG2 cells assessed as reduction in cell viability incubated for 48 hrs by MTT assay; conditions: HepG2, 48 h
Hep 3B2 = experiment: Antiproliferative activity against human Hep3B cells assessed as reduction in cell viability incubated for 48 hrs by MTT assay
SMMC-7721 = experiment: Antiproliferative activity against human SMMC-7721 cells assessed as reduction in cell viability incubated for 48 hrs by MTT assay
[1] = Homo sapiens, SMMC-7721, 48 h, read-out: IC50

Compound	IC50 (HepG2) [µM]	IC50 (Hep 3B2) [µM]	IC50 (SMMC-7721; smmc-7721)	IC50 (SMMC-7721; [1]) [µM]
COc1ccc(-c2oc3c(CC=C(C)C)c(OCCCN4CCC(O)CC4)cc(O)c3c(=O)c2O[C@H]2O[C@H](C)[C@@H](O)[C@H](O)[C@@H]2O)cc1	> 10	8.6	Not Active	–
COc1ccc(-c2oc3c(CC=C(C)C)c(OCCN4CCC(O)CC4)cc(O)c3c(=O)c2O[C@H]2O[C@H](C)[C@@H](O)[C@H](O)[C@@H]2O)cc1	> 10	> 10	Not Active	–
COc1ccc(-c2oc3c(CC=C(C)C)c(OCCCN)cc(O)c3c(=O)c2O[C@H]2O[C@H](C)[C@@H](O)[C@H](O)[C@@H]2O)cc1	> 10	> 10	Not Active	–
COc1ccc(-c2oc3c(CC=C(C)C)c(OCCCCN(C)C)cc(O)c3c(=O)c2O[C@H]2O[C@H](C)[C@@H](O)[C@H](O)[C@@H]2O)cc1	> 10	8.7	Not Active	–
COc1ccc(-c2oc3c(CC=C(C)C)c(OCCCCN4CCC(O)CC4)cc(O)c3c(=O)c2O[C@H]2O[C@H](C)[C@@H](O)[C@H](O)[C@@H]2O)cc1	6.5	5.7	–	7.1
COc1ccc(-c2oc3c(CC=C(C)C)c(OCCOCCN4CCCC4)cc(O)c3c(=O)c2O[C@H]2O[C@H](C)[C@@H](O)[C@H](O)[C@@H]2O)cc1	8.6	6.4	–	8.6
COc1ccc(-c2oc3c(CC=C(C)C)c(OCCCCN4CCC(N5CCCCC5)CC4)cc(O)c3c(=O)c2O[C@H]2O[C@H](C)[C@@H](O)[C@H](O)[C@@H]2O)cc1	7.6	3.9	–	6.4
COc1ccc(-c2oc3c(CC=C(C)C)c(OCCCCC(=O)NO)cc(O)c3c(=O)c2O[C@H]2O[C@H](C)[C@@H](O)[C@H](O)[C@@H]2O)cc1	> 10	> 10	–	> 10
CCN(CC)CCCCOc1cc(O)c2c(=O)c(O[C@H]3O[C@H](C)[C@@H](O)[C@H](O)[C@@H]3O)c(-c3ccc(OC)cc3)oc2c1CC=C(C)C	3.8	5.4	–	6.4
CCCCN(CCCC)CCOc1cc(O)c2c(=O)c(O[C@H]3O[C@H](C)[C@@H](O)[C@H](O)[C@@H]3O)c(-c3ccc(OC)cc3)oc2c1CC=C(C)C	> 10	> 10	Not Active	–
COc1ccc(-c2oc3c(CC=C(C)C)c(OCCCCN4CCCC4)cc(O)c3c(=O)c2O[C@H]2O[C@H](C)[C@@H](O)[C@H](O)[C@@H]2O)cc1	3	4	–	> 10
CCN(CC)C[C@@H](O)COc1cc(O)c2c(=O)c(O[C@H]3O[C@H](C)[C@@H](O)[C@H](O)[C@@H]3O)c(-c3ccc(OC)cc3)oc2c1CC=C(C)C	> 10	8.3	–	> 10
CNC(=O)c1cc(Oc2ccc(NC(=O)Nc3ccc(Cl)c(C(F)(F)F)c3)cc2)ccn1 [SORAFENIB]	5.5	7.7	–	8.8
COc1ccc(-c2oc3c(CC=C(C)C)c(OCCCN4CCC(N5CCCCC5)CC4)cc(O)c3c(=O)c2O[C@H]2O[C@H](C)[C@@H](O)[C@H](O)[C@@H]2O)cc1	6.6	5.6	–	> 10
COc1ccc(-c2oc3c(CC=C(C)C)c(OCCCN4CCC(C)CC4)cc(O)c3c(=O)c2O[C@H]2O[C@H](C)[C@@H](O)[C@H](O)[C@@H]2O)cc1	> 10	> 10	Not Active	–
CCN(CC)CCOCCOCCOc1cc(O)c2c(=O)c(O[C@H]3O[C@H](C)[C@@H](O)[C@H](O)[C@@H]3O)c(-c3ccc(OC)cc3)oc2c1CC=C(C)C	> 10	> 10	–	> 10
COc1ccc(-c2oc3c(CC=C(C)C)c(OCCN4CCNCC4)cc(O)c3c(=O)c2O[C@H]2O[C@H](C)[C@@H](O)[C@H](O)[C@@H]2O)cc1	> 10	> 10	Not Active	–
COc1ccc(-c2oc3c(CC=C(C)C)c(OCCN4CCC(C)CC4)cc(O)c3c(=O)c2O[C@H]2O[C@H](C)[C@@H](O)[C@H](O)[C@@H]2O)cc1	> 10	> 10	Not Active	–
COc1ccc(-c2oc3c(CC=C(C)C)c(OCCN4CCC(N5CCCCC5)CC4)cc(O)c3c(=O)c2O[C@H]2O[C@H](C)[C@@H](O)[C@H](O)[C@@H]2O)cc1	> 10	> 10	Not Active	–
COc1ccc(-c2oc3c(CC=C(C)C)c(OC[C@H](O)CN4CCCC4)cc(O)c3c(=O)c2O[C@H]2O[C@H](C)[C@@H](O)[C@H](O)[C@@H]2O)cc1	> 10	> 10	–	> 10
CCCCN(CCCC)CCCOc1cc(O)c2c(=O)c(O[C@H]3O[C@H](C)[C@@H](O)[C@H](O)[C@@H]3O)c(-c3ccc(OC)cc3)oc2c1CC=C(C)C	> 10	9.3	Not Active	–
COc1ccc(-c2oc3c(CC=C(C)C)c(OCCOCCN4CCOCC4)cc(O)c3c(=O)c2O[C@H]2O[C@H](C)[C@@H](O)[C@H](O)[C@@H]2O)cc1	> 10	> 10	Not Active	–

Compound	IC50 (HepG2) [µM]	IC50 (Hep 3B2) [µM]	IC50 (SMMC-7721; smmc-7721)	IC50 (SMMC-7721; [1]) [µM]
CCN(CC)CCOc1cc(O)c2c(=O)c(O[C@H]3O[C@H](C)[C@@H](O)[C@H](O)[C@@H]3O)c(-c3ccc(OC)cc3)oc2c1CC=C(C)C	> 10	> 10	Not Active	–
COc1ccc(-c2oc3c(CC=C(C)C)c(OC[C@H](O)CN(C)C)cc(O)c3c(=O)c2O[C@H]2O[C@H](C)[C@@H](O)[C@H](O)[C@@H]2O)cc1	> 10	> 10	–	> 10
COc1ccc(-c2oc3c(CC=C(C)C)c(OCCCN4CCNCC4)cc(O)c3c(=O)c2O[C@H]2O[C@H](C)[C@@H](O)[C@H](O)[C@@H]2O)cc1	> 10	3.8	Not Active	–
COc1ccc(-c2oc3c(CC=C(C)C)c(OCCCCN4CCC(C)CC4)cc(O)c3c(=O)c2O[C@H]2O[C@H](C)[C@@H](O)[C@H](O)[C@@H]2O)cc1	> 10	> 10	Not Active	–
CCN(CC)CCCCCCOc1cc(O)c2c(=O)c(O[C@H]3O[C@H](C)[C@@H](O)[C@H](O)[C@@H]3O)c(-c3ccc(OC)cc3)oc2c1CC=C(C)C	2.5	8.9	–	6.5
COc1ccc(-c2oc3c(CC=C(C)C)c(OCCCCN4CCOCC4)cc(O)c3c(=O)c2O[C@H]2O[C@H](C)[C@@H](O)[C@H](O)[C@@H]2O)cc1	> 10	> 10	Not Active	–
COc1ccc(-c2oc3c(CC=C(C)C)c(OCCCN(C)C)cc(O)c3c(=O)c2O[C@H]2O[C@H](C)[C@@H](O)[C@H](O)[C@@H]2O)cc1	> 10	> 10	Not Active	–
COc1ccc(-c2oc3c(CC=C(C)C)c(OCCCN4CCCC4)cc(O)c3c(=O)c2O[C@H]2O[C@H](C)[C@@H](O)[C@H](O)[C@@H]2O)cc1	6.3	7.6	–	6.1
COc1ccc(-c2oc3c(CC=C(C)C)c(OCCCCCCN4CCCC4)cc(O)c3c(=O)c2O[C@H]2O[C@H](C)[C@@H](O)[C@H](O)[C@@H]2O)cc1	2.5	7.6	–	4.8
COc1ccc(-c2oc3c(CC=C(C)C)c(OCCCCN4CCNCC4)cc(O)c3c(=O)c2O[C@H]2O[C@H](C)[C@@H](O)[C@H](O)[C@@H]2O)cc1	7.4	8	Not Active	–
COc1ccc(-c2oc3c(CC=C(C)C)c(OCCOCCOCCOCCN4CCCC4)cc(O)c3c(=O)c2O[C@H]2O[C@H](C)[C@@H](O)[C@H](O)[C@@H]2O)cc1	> 10	9.8	–	> 10
CCN(CC)CCCOc1cc(O)c2c(=O)c(O[C@H]3O[C@H](C)[C@@H](O)[C@H](O)[C@@H]3O)c(-c3ccc(OC)cc3)oc2c1CC=C(C)C	5.5	> 10	–	> 10
COc1ccc(-c2oc3c(CC=C(C)C)c(OCCCC(=O)NO)cc(O)c3c(=O)c2O[C@H]2O[C@H](C)[C@@H](O)[C@H](O)[C@@H]2O)cc1	> 10	> 10	–	> 10
COc1ccc(-c2oc3c(CC=C(C)C)c(OCCCCCC(=O)NO)cc(O)c3c(=O)c2O[C@H]2O[C@H](C)[C@@H](O)[C@H](O)[C@@H]2O)cc1	> 10	> 10	–	> 10
COc1ccc(-c2oc3c(CC=C(C)C)c(OCCN4CCOCC4)cc(O)c3c(=O)c2O[C@H]2O[C@H](C)[C@@H](O)[C@H](O)[C@@H]2O)cc1	> 10	6.1	Not Active	–
CCCCN(CCCC)CCCCOc1cc(O)c2c(=O)c(O[C@H]3O[C@H](C)[C@@H](O)[C@H](O)[C@@H]3O)c(-c3ccc(OC)cc3)oc2c1CC=C(C)C	9.8	> 10	Not Active	–
COc1ccc(-c2oc3c(CC=C(C)C)c(OCCCN4CCOCC4)cc(O)c3c(=O)c2O[C@H]2O[C@H](C)[C@@H](O)[C@H](O)[C@@H]2O)cc1	7.4	8	–	> 10
COc1ccc(-c2oc3c(CC=C(C)C)c(OCCOCCN4CCNCC4)cc(O)c3c(=O)c2O[C@H]2O[C@H](C)[C@@H](O)[C@H](O)[C@@H]2O)cc1	> 10	> 10	Not Active	–
COc1ccc(-c2oc3c(CC=C(C)C)c(OCCN)cc(O)c3c(=O)c2O[C@H]2O[C@H](C)[C@@H](O)[C@H](O)[C@@H]2O)cc1	> 10	> 10	Not Active	–
CCN(CC)CCOCCOCCOCCOc1cc(O)c2c(=O)c(O[C@H]3O[C@H](C)[C@@H](O)[C@H](O)[C@@H]3O)c(-c3ccc(OC)cc3)oc2c1CC=C(C)C	7.1	7.2	–	> 10
COc1ccc(-c2oc3c(CC=C(C)C)c(OCCCCN)cc(O)c3c(=O)c2O[C@H]2O[C@H](C)[C@@H](O)[C@H](O)[C@@H]2O)cc1	4.7	4.9	–	> 10
COc1ccc(-c2oc3c(CC=C(C)C)c(OCCOCCN4CCC(O)CC4)cc(O)c3c(=O)c2O[C@H]2O[C@H](C)[C@@H](O)[C@H](O)[C@@H]2O)cc1	> 10	> 10	Not Active	–
